These results are taken from patent publication US9296758B2, “2-quinolinyl-acetic acid derivatives as HIV antiviral compounds” (GILEAD SCIENCES, INC., priority 2010, dated 2016).

The subject of one assay is HIV-IIIb. Briefly: Test A: Antiviral Assays in MT4 Cells. Format: cell-based. The conditions noted are these: Human immunodeficiency virus 1, IIIB, MT4, 120 h, MT-4 cells infected with HIV-IIIb (0.004 m.o.i.), 5 days of incubation, CellTiter-Glo chemiluminescence readout. An outline of the steps: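 MT-4 cells pre-infected with HIV-IIIb (0.004 m.o.i.) or mock-infected, 2000 cells per well, were exposed to 10 three-fold serial compound dilutions in quadruplicate in RPMI 1640 with 10% FBS. After 5 days at 37° C, cell viability read by CellTiter-Glo chemiluminescence.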
In general terms: Cellular ATP, detected with luciferase, serves as a proxy for viable cell number.
Regarding `Cc1cc2nc(CN(C)c3ccccc3)ccc2c(-c2ccc(Cl)cc2)c1[C@H](OC(C)(C)C)C(=O)O` [Compound 14, (S)-2-tert-Butoxy-2-(5-(4-chlorophenyl)-7-methyl-2-((methyl(phenyl)amino)methyl)quinolin-6-yl)acetic acid], the EC50 was found to be 0.983 µM.
Still for that read-out and setting: under `Cc1cc2nc(-c3ccncc3)ccc2c(-c2ccc3c4c(ccnc24)CCO3)c1[C@H](OC(C)(C)C)C(=O)O` (atropisomer, axis not shown) [Compound 75, (S)-2-tert-Butoxy-2-((R)-5-(2,3-dihydropyrano[4,3,2-de]quinolin-7-yl)-7-methyl-2-(pyridin-4-yl)quinolin-6-yl)acetic acid] stands 0.038 µM; under `CCOC(=O)c1ccc2c(-c3ccc(Cl)cc3)c([C@H](OC(C)(C)C)C(=O)O)c(C)cc2n1` [Compound 13, (S)-2-tert-Butoxy-2-(5-(4-chlorophenyl)-2-(ethoxycarbonyl)-7-methylquinolin-6-yl)acetic acid], 0.15 µM; under `CCc1ccc2c(-c3ccc(Cl)cc3)c([C@H](OC(C)(C)C)C(=O)O)c(C)cc2n1` [Compound 26, (S)-2-tert-butoxy-2-(5-(4-chlorophenyl)-2-ethyl-7-methylquinolin-6-yl)acetic acid], 0.045 µM.
On the same count and under the same terms, under `Cc1cc2nc(C3CC3)ccc2c(-c2ccc3c4c(ccnc24)CCO3)c1[C@H](OC(C)(C)C)C(=O)O` (atropisomer, axis not shown) [Compound 58, (S)-2-tert-Butoxy-2-((R)-2-cyclopropyl-5-(2,3-dihydropyrano[4,3,2-de]quinolin-7-yl)-7-methylquinolin-6-yl)acetic acid] stands 0.014 µM.
Still for that read-out and setting: under `Cc1cc2nc(-c3cn[nH]c3)ccc2c(-c2ccc(Cl)cc2)c1[C@H](OC(C)(C)C)C(=O)O` [Compound 77, (S)-2-tert-butoxy-2-(5-(4-chlorophenyl)-7-methyl-2-(1H-pyrazol-4-yl)quinolin-6-yl)acetic acid] stands 0.135 µM; under `Cc1cc2nc(C(=O)N(C)C)ccc2c(-c2ccc(Cl)cc2)c1[C@H](OC(C)(C)C)C(=O)O` [Compound 16, (S)-2-tert-Butoxy-2-(5-(4-chlorophenyl)-2-(dimethylcarbamoyl)-7-methylquinolin-6-yl)acetic acid], 0.22 µM.
On to `Cc1cc2nc(-c3cn[nH]c3)ccc2c(-c2ccc3c4c(ccnc24)CCO3)c1[C@H](OC(C)(C)C)C(=O)O` (atropisomer, axis not shown) [Compound 78, (S)-2-tert-Butoxy-2-((R)-5-(2,3-dihydropyrano[4,3,2-de]quinolin-7-yl)-7-methyl-2-(1H-pyrazol-4-yl)quinolin-6-yl)acetic acid], for which the EC50 was determined as 0.163 µM.
Same read-out and setting: the result for `Cc1cc2nc(-c3cccc(Cl)c3)ccc2c(-c2ccc3c4c(ccnc24)CCO3)c1[C@H](OC(C)(C)C)C(=O)O` (atropisomer, axis not shown) [Compound 55, (S)-2-tert-Butoxy-2-((R)-2-(3-chlorophenyl)-5-(2,3-dihydropyrano[4,3,2-de]quinolin-7-yl)-7-methylquinolin-6-yl)acetic acid] reads 0.041 µM.
Same read-out and setting: the result for `Cc1cc2nc(-c3ccn[nH]3)ccc2c(-c2ccc(Cl)cc2)c1[C@H](OC(C)(C)C)C(=O)O` [Compound 70, (S)-2-tert-Butoxy-2-(5-(4-chlorophenyl)-7-methyl-2-(1H-pyrazol-5-yl)quinolin-6-yl)acetic acid] reads 0.206 µM.

The same assay, now with this note: MT-4 cells infected with HIV-IIIb (0.004 m.o.i.), 5 days of incubation, CellTiter-Glo chemiluminescence readout.
`Cc1cc2nc(CN(C)C)ccc2c(-c2ccc3c4c(ccnc24)CCO3)c1[C@H](OC(C)(C)C)C(=O)O` [Compound 20, (S)-2-tert-butoxy-2-((R)-5-(2,3-dihydropyrano[4,3,2-de]quinolin-7-yl)-2-((dimethylamino)methyl)-7-methylquinolin-6-yl)acetic acid]: the EC50 was 1.74 µM.

A word on the EC50: it is the concentration that produces a half-maximal response. A high value points to lower potency in that assay.
